Data reported in ChEMBL document CHEMBL1201862, “PubChem BioAssay data set” (2004).
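Method: 48-hour compound exposure of cells in 96-well plates, five concentrations, linear interpolation of endpoints. GI50 is the concentration that inhibits growth by half.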 The source made the active and inactive calls. No stated cut-off is given here; in the data, active = GI50 up to about 1.1 µM and inactive = higher.

Columns and labels:
Test in all cases: NCI tumour cell line growth inhibition, 48 h
OVCAR-3 = tested on: OVCAR-3
SK-MEL-28 = tested on: SK-MEL-28
HCT-116 = tested on: HCT-116
SNB-75 = tested on: SNB-75
NCI-H460 = tested on: NCI-H460
SF-295 = tested on: SF-295
OVCAR-4 = tested on: OVCAR-4
HOP-62 = tested on: HOP-62
TK-10 = tested on: TK-10
HL-60 = tested on: HL-60
SR = tested on: SR
SW-620 = tested on: SW-620
OVCAR-8 = tested on: OVCAR-8
IGROV-1 = tested on: IGROV-1
SK-MEL-5 = tested on: SK-MEL-5
K562 = tested on: K562

| SMILES | GI50 (OVCAR-3) | GI50 (SK-MEL-28) | GI50 (HCT-116) | GI50 (SNB-75) | GI50 (NCI-H460) | GI50 (SF-295) | GI50 (OVCAR-4) | GI50 (HOP-62) | GI50 (TK-10) | GI50 (HL-60) | GI50 (SR) | GI50 (SW-620) | GI50 (OVCAR-8) | GI50 (IGROV-1) | GI50 (SK-MEL-5) | GI50 (K562) |
| --- | --- | --- | --- | --- | --- | --- | --- | --- | --- | --- | --- | --- | --- | --- | --- | --- |
| Cc1cc(C(C)C)cc(=O)c(O)c1 | > 100 µM (inactive) | > 100 µM (inactive) | > 100 µM (inactive) | > 100 µM (inactive) | > 100 µM (inactive) | > 100 µM (inactive) | > 100 µM (inactive) | > 100 µM (inactive) | > 100 µM (inactive) | > 100 µM (inactive) | > 100 µM (inactive) | > 100 µM (inactive) | > 100 µM (inactive) | > 100 µM (inactive) | > 100 µM (inactive) | – |
| Cc1cc(Br)cc(C)c1NC(=O)C(=O)C(C(=O)c1ccc2ccccc2c1)C1OC(=O)c2ccccc21 (stereo unspecified) | 19.5 µM (inactive) | 8.97 µM (inactive) | 8.91 µM (inactive) | 14.3 µM (inactive) | 4.66 µM (inactive) | 4.59 µM (inactive) | 5.14 µM (inactive) | 12.2 µM (inactive) | 21.1 µM (inactive) | 4.45 µM (inactive) | 2.47 µM (inactive) | 8.02 µM (inactive) | 7.18 µM (inactive) | 18.2 µM (inactive) | 11.2 µM (inactive) | 5.93 µM (inactive) |
| C/C(CC(=O)Nc1ccc([N+](=O)[O-])cc1)=N/N=C(N)N | > 100 µM (inactive) | > 100 µM (inactive) | > 100 µM (inactive) | > 100 µM (inactive) | > 100 µM (inactive) | > 100 µM (inactive) | – | > 100 µM (inactive) | > 100 µM (inactive) | > 100 µM (inactive) | – | > 100 µM (inactive) | > 100 µM (inactive) | > 100 µM (inactive) | > 100 µM (inactive) | > 100 µM (inactive) |
| CCN1C(=O)C(N=[N+]=[N-])(c2ccccc2)C(=O)c2ccccc21 (stereo unspecified) | 56.8 µM (inactive) | > 100 µM (inactive) | 61.8 µM (inactive) | 83 µM (inactive) | 94.8 µM (inactive) | 60.3 µM (inactive) | 59 µM (inactive) | > 100 µM (inactive) | > 100 µM (inactive) | 21.6 µM (inactive) | 36.3 µM (inactive) | > 100 µM (inactive) | – | > 100 µM (inactive) | 56.5 µM (inactive) | 39 µM (inactive) |
| C=CCN1C2Cc3cc(OC)c(OC)cc3C1Cc1cc(OC)c(OC)cc12 | > 100 µM (inactive) | > 100 µM (inactive) | – | > 100 µM (inactive) | > 100 µM (inactive) | 53.8 µM (inactive) | > 100 µM (inactive) | > 100 µM (inactive) | > 100 µM (inactive) | – | – | > 100 µM (inactive) | > 100 µM (inactive) | – | > 100 µM (inactive) | > 100 µM (inactive) |
| CCOP(=O)(C/C(=N/NC(C)(C)C)C(=O)Nc1nc2ccc(C)cc2s1)OCC | > 100 µM (inactive) | > 100 µM (inactive) | > 100 µM (inactive) | > 100 µM (inactive) | > 100 µM (inactive) | > 100 µM (inactive) | > 100 µM (inactive) | > 100 µM (inactive) | > 100 µM (inactive) | > 100 µM (inactive) | > 100 µM (inactive) | > 100 µM (inactive) | > 100 µM (inactive) | > 100 µM (inactive) | > 100 µM (inactive) | > 100 µM (inactive) |
| Cc1ccc(SSCCCS(=O)O)cc1 | 47 µM (inactive) | 45.7 µM (inactive) | 30.1 µM (inactive) | 21.8 µM (inactive) | 63.1 µM (inactive) | 32.8 µM (inactive) | 43.8 µM (inactive) | 29.2 µM (inactive) | 39.5 µM (inactive) | 0.435 µM (active) | – | 34.2 µM (inactive) | 21.6 µM (inactive) | 7.93 µM (inactive) | 30.1 µM (inactive) | 0.766 µM (active) |
| O=C1NC2(O)c3ccccc3C(=O)C2(O)N1c1ccccc1 (stereo unspecified) | > 100 µM (inactive) | > 100 µM (inactive) | > 100 µM (inactive) | > 100 µM (inactive) | > 100 µM (inactive) | > 100 µM (inactive) | > 100 µM (inactive) | – | > 100 µM (inactive) | > 100 µM (inactive) | > 100 µM (inactive) | > 100 µM (inactive) | > 100 µM (inactive) | > 100 µM (inactive) | – | > 100 µM (inactive) |
| Cn1cnc([N+](=O)[O-])c1Sc1nnc(-c2ccc(Cl)cc2)n1C | 13.9 µM (inactive) | 14.2 µM (inactive) | 13.1 µM (inactive) | 17.7 µM (inactive) | 20.7 µM (inactive) | 50 µM (inactive) | 13.7 µM (inactive) | > 100 µM (inactive) | 17.7 µM (inactive) | – | 7.41 µM (inactive) | 11.3 µM (inactive) | 17.5 µM (inactive) | 16.7 µM (inactive) | – | 10.7 µM (inactive) |
